Results on 20 compounds are retold here after patent US20100249145A1, “Inhibitors of VEGF Receptor and HGF Receptor Signaling” (Methylgene, Inc., priority 2005, published 2010).

Where a name gives a salt, the structure may show the parent alone.

As a reminder, the IC50 is the midpoint of a concentration-inhibition curve.

One test concerns U87 cells. Put plainly: In vivo solid tumor disease model, U87 xenograft. As to conditions: U87MG, vehicle 5% DMSO - 1% Tween-80 in water, 14 days. Set-up: species or system female athymic CD 1 mice. The text has this:
(§1) In Vivo Solid Tumor Disease Model
(§2) This test measures the capacity of compounds to inhibit solid tumor growth.
(§3) Tumor xenografts were established in the flank of female athymic CD 1 mice (Charles River Inc.), by subcutaneous injection of 1×10^6U87, A431 or SKLMS cells/mouse. Once established, tumors were then serially passaged s.c. in nude mice hosts. Tumor fragments from these host animals were used in subsequent compound evaluation experiments. For compound evaluation experiments female nude mice weighing approximately 20 g were implanted s.c. by surgical implantation with tumor fragments of ˜30 mg from donor tumors. When the tumors were approximately 100 mm^3 in size (˜7-10 days following implantation), the animals were randomized a separated into treatment and control groups. Each group contained 6-8 tumor-bearing mice, each of which was ear-tagged and followed individually throughout the experiment
(§4) Mice were weighed and tumor measurements are taken by calipers three times weekly, starting on Day 1. These tumor measurements were converted to tumor volume by the well-known formula (L+W/4)^34/3π. The experiment was terminated when the control tumors reached a size of approximately 1500 mm^3. In this model, the change in mean tumor volume for a compound treated group/the change in mean tumor volume of the control group (non-treated or vehicle treated)×100 (ΔT/ΔC) was subtracted from 100 to give the percent tumor growth inhibition (% TGI) for each test compound. In addition to tumor volumes, body weight of animals were monitored twice weekly for up to 3 weeks.
(§5) Regiment of administration was once daily.

A further test concerns A549. Put plainly: In vivo solid tumor disease model, A549 xenograft. Also noted: species or system female athymic CD 1 mice.
For the next test, the target named is TPR-MET fusion protein (Homo sapiens, UniProt P08581). Put plainly: C-Met phosphorylation cell-based assay (MNNGHOS cells, immunoblot). The conditions noted are these: Table 30, 3 hours treatment, read-out: C-Met cell-based Y1230-34-35 tpr-met inhibition (IC50). From the text:
C-Met Phosphorylation Cell-Based Assay
Background: A western blot detects proteins with antibodies after separation by electrophoresis.

For another test, the target named is T1, VEGF receptor KDR (Homo sapiens, UniProt P35968).
T1 construct: made in house; host or cells: Sf9 cells (Spodoptera frugiperda), recombinant baculovirus
Put plainly: In vitro receptor tyrosine kinase assay (DELFIA), VEGF receptor KDR. Format: biochemical. The conditions noted are these: Table 30; ATP 0.6 uM, enzyme 5 nM; read-out: VEGF(enz.) (IC50).

Test [1] has as its target T2, recombinant human c-Met/HGF receptor (Homo sapiens, UniProt P08581).
T2 construct: His tag (histidine tag from pBlueBacHis2A); made in house; host or cells: Hi-5 cells (Trichoplusia ni), recombinant baculovirus
Put plainly: In vitro receptor tyrosine kinase assay (DELFIA), c-Met/HGF receptor. Format: biochemical. The conditions noted are these: Table 30; ATP 10 uM, enzyme 25 nM; read-out: C-Met (enz.) (IC50).

The subject of another test is SKLMS cells. As to the kind of experiment: In vivo solid tumor disease model, SKLMS xenograft. Set-up: species or system female athymic CD 1 mice. As to conditions: SKLMS40, 75 mg/kg once daily PO, vehicle 5% DMSO - 1% Tween-80 in water.
Source text: as §1, §2, §3, §4, §5

Where [2] appears, read: 30 mg/kg once daily IP, vehicle DMSO, 10 days.
Where [3] appears, read: 75 mg/kg once daily PO, vehicle 5% DMSO - 1% Tween-80 in water, 10 days.

T2 sequence (P08581 1078-1337): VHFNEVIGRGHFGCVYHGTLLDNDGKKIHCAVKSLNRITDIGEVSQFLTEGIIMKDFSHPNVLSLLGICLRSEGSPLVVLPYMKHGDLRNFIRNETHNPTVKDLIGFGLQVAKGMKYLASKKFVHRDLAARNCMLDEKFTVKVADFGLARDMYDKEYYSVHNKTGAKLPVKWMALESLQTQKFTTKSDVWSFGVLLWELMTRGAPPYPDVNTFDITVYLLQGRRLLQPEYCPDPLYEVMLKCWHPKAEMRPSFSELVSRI
T1 sequence (P35968 806-1356): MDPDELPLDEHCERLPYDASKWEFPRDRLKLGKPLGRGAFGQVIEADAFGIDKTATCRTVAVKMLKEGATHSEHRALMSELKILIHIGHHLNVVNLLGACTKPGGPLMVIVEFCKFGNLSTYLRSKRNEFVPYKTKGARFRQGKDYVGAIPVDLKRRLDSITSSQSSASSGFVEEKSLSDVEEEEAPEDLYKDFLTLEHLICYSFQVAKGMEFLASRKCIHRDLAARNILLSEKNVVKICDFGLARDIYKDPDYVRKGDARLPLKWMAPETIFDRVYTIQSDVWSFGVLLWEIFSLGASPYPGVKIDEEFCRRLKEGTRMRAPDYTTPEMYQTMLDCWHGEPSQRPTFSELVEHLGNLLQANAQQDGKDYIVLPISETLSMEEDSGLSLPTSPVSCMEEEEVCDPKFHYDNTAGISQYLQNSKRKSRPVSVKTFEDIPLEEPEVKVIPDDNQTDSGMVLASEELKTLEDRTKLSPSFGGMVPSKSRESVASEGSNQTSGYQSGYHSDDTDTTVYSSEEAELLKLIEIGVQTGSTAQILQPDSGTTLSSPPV
Chain of TPR-MET fusion protein (P08581 with tags, fused parts or gaps): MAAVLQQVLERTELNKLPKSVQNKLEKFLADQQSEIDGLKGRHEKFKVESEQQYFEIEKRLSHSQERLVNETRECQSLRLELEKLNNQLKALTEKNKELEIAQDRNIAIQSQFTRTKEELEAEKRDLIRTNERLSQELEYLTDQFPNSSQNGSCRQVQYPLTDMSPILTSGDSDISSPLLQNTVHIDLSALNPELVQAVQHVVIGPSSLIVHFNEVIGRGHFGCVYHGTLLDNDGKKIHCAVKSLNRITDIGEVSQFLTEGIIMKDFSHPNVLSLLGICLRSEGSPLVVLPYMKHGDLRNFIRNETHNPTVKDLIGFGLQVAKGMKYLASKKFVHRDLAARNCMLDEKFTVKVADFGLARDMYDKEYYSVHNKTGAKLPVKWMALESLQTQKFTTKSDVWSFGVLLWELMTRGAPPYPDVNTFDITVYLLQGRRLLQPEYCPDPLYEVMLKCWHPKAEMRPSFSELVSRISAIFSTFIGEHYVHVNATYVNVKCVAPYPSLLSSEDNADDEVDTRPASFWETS

As for `CCn1ccnc1-c1cc2nccc(Oc3ccc(NC(=S)NC(=O)Cc4ccccc4)cc3F)c2s1` [Example 73, N-(4-(2-(1-Ethyl-1H-imidadzol-2-yl)thieno[3,2-b]pyridin-7-yloxy)-3-fluorophenylcarbamothioyl)-2-phenylacetamide], the “Tumor Growth Inhibition (%)” value in the test on U87 cells (100 mg/kg once daily PO) is “c (% TGI in the range of 25-49)”.
As to `Cn1cnc(-c2cc3nccc(Oc4ccc(NC(=S)NC(=O)Cc5ccccc5)cc4)c3s2)c1` [Example 201, N-(4-(2-(1-Methyl-1H-imidazol-4-yl)thieno[3,2-b]pyridin-7-yloxy)phenylcarbamothioyl)-2-phenylacetamide], the “Tumor Growth Inhibition (%)” value in the test with A549 (setting [2]) and in the test on A549 (setting [3]) was “c (% TGI in the range of 25-49)” in each case.
Turning to `O=C(Cc1ccccc1)NC(=S)Nc1ccc(Oc2ccnc3cc(-c4ccc(CN5CCOCC5)cc4)sc23)c(F)c1` [Example 56, 1-(3-Fluoro-4-(2-(4-(morpholinomethyl)phenyl)thieno[3,2-b]pyridin-7-yloxy)phenyl)-3-(2-phenylacetyl)thiourea], the “Tumor Growth Inhibition (%)” value in the test with A549 (30 mg/kg once daily IP, vehicle DMSO, 12 days) is listed as “c (% TGI in the range of 25-49)”.
In the case of `CC(C)N(CCNC(=O)c1cc2nccc(Oc3ccc(NC(=S)NC(=O)Cc4ccccc4)cc3F)c2s1)C(C)C` [Example 36, 7-[2-Fluoro-4-(3-phenylacetyl-thioureido)-phenoxy]-thieno[3,2-b]pyridine-2-carboxylic acid (2-diisopropylamino-ethyl)-amide, formate salt], the figures for the half-maximal inhibitory concentration (IC50) (at TPR-MET fusion protein; on VEGF receptor KDR; in test [1]) were 50 to 250 nM, over 500 nM and 50 to 250 nM, respectively.
For `Cn1cc(-c2cc3nccc(Oc4ccc(NC(=S)NC(=O)Cc5ccccc5)cc4F)c3s2)cn1` [Example 81, N-(3-Fluoro-4-(2-(1-methyl-1H-pyrazol-4-yl)thieno[3,2-b]pyridin-7-yloxy)phenylcarbamothioyl)-2-phenylacetamide], the “Tumor Growth Inhibition (%)” value with SKLMS cells (14 days) is “c (% TGI in the range of 25-49)”.
Regarding `O=C(Cc1ccccc1)NC(=S)Nc1ccc(Oc2ccnc3cc[nH]c23)c(F)c1` [Example 221, N-(4-(1H-Pyrrolo[3,2-b]pyridin-7-yloxy)-3-fluorophenylcarbamothioyl)-2-phenyl acetamide], the values for the half-maximal inhibitory concentration (IC50) (on TPR-MET fusion protein; at VEGF receptor KDR; in test [1]) were over 500 nM, over 500 nM and under 50 nM, respectively.
As to `O=C(Cc1ccccc1)NC(=S)Nc1ccc(Oc2ccnc3cc(C(=O)NCCN4CCOCC4)sc23)c(F)c1` [Example 2, l-(4-(2-(2-morpholinoethylcarbamoyl)thieno[3,2-b]pyridin-7-yloxy)-3-fluorophenyl)-3-(2-phenylacetyl)thiourea], the IC50 at TPR-MET fusion protein is 50 to 250 nM; on VEGF receptor KDR, under 50 nM; in test [1] it was 50 to 250 nM.
As for `C#Cc1ccccc1CC(=O)NC(=S)Nc1ccc(Oc2ccnc3cc(-c4cn(CC)cn4)sc23)c(F)c1` [drawing 496], the “Tumor Growth Inhibition (%)” value in the test on A549 (40 mg/kg once daily p.o., 14 days) is listed as “b (% TGI in the range of 50-74)”.
For `CON(C)C(=O)c1cc2nccc(Oc3ccc(NC(=S)NC(=O)Cc4ccccc4)cc3F)c2s1` [Example 10, 1-(4-(2-(N-methoxy-N-methylcarbamoyl)thieno[3,2-b]pyridin-7-yloxy)-3-fluorophenyl)-3-(2-phenylacetyl)thiourea], the IC50 (at TPR-MET fusion protein; on VEGF receptor KDR; in test [1]) was 50 to 250 nM throughout.
Regarding `O=C(Cc1ccccc1)NC(=S)Nc1ccc(Oc2ncnc3cc(C(=O)NCCN4CCOCC4)sc23)c(F)c1` [Example 22, 1-(4-(6-(2-Morpholinoethylcarbamoyl)thieno[3,2-d]pyrimidin-4-yloxy)-3-fluorophenyl)-3-(2-phenylacetyl)thiourea], the IC50 at TPR-MET fusion protein is under 50 nM; on VEGF receptor KDR, 50 to 250 nM; in test [1], 50 to 250 nM.
Take `CN(Cc1ccco1)C(=O)c1cc2nccc(Oc3ccc(NC(=S)NC(=O)Cc4ccccc4)cc3F)c2s1` [Example 35, 7-[2-Fluoro-4-(3-phenylacetyl-thioureido)-phenoxy]-thieno[3,2-b]pyridine-2-carboxylic acid furan-2-ylmethyl-methyl-amide]: the IC50 was under 50 nM at TPR-MET fusion protein, 50 to 250 nM on VEGF receptor KDR and 50 to 250 nM in test [1].
On to `CCn1cnc(-c2cc3nccc(Oc4ccc(NC(=S)NC(=O)Cc5ccccc5OC)cc4F)c3s2)c1` [Example 243, 1-{4-[2-(1-Ethyl-1H-imidazol-4-yl)-thieno[3,2-b]pyridin-7-yloxy]-3-fluoro-phenyl}-3-[2-(2-methoxy-phenyl)-acetyl]-thiourea], for which the “Tumor Growth Inhibition (%)” value in the test with U87 cells (75 mg/kg once daily PO) and in the test with SKLMS cells (11 days) was “b (% TGI in the range of 50-74)” throughout.
`CN(C)C(=O)c1cc2ncnc(Oc3ccc(NC(=S)NC(=O)Cc4ccccc4)cc3F)c2s1` [Example 23, 1-(4-(6-(Dimethylcarbamoyl)thieno[3,2-d]pyrimidin-4-yloxy)-3-fluorophenyl)-3-(2-phenylacetyl)thiourea]: the half-maximal inhibitory concentration (IC50) at TPR-MET fusion protein is 50 to 250 nM; on VEGF receptor KDR, under 50 nM; in test [1], 50 to 250 nM.
For the compound `O=C(Cc1ccccc1)NC(=S)Nc1ccc(Oc2ncnc3cc(C(=O)N4CCCC4)sc23)c(F)c1` [Example 142, N-(3-Fluoro-4-(6-(pyrrolidine-1-carbonyl)thieno[3,2-d]pyrimidin-4-yloxy)phenylcarbamothioyl)-2-phenylacetamide], the IC50 on TPR-MET fusion protein was under 50 nM; at VEGF receptor KDR, under 50 nM; in test [1], 50 to 250 nM.
For `CCn1cnc(-c2cc3nccc(Oc4ccc(NC(=S)NC(=O)Cc5ccccc5)cc4F)c3s2)c1` [Example 77, N-(4-(2-(1-Ethyl-1H-imidazol-4-yl)thieno[3,2-b]pyridin-7-yloxy)-3-fluorophenylcarbamothioyl)-2-phenylacetamide], the “Tumor Growth Inhibition (%)” value is reported as “b (% TGI in the range of 50-74)” in the test with A549 (setting [2]), “b (% TGI in the range of 50-74)” with A549 (setting [3]), “b (% TGI in the range of 50-74)” in the test with U87 cells (75 mg/kg once daily PO) and “d (% TGI in the range of 0-24)” in the test on SKLMS cells (6 days).
For `NC(=O)[C@@H]1CCCN1C(=O)c1cc2nccc(Oc3ccc(NC(=S)NC(=O)Cc4ccccc4)cc3F)c2s1` [Example 40, (S)-1-(7-(2-Fluoro-4-(3-(2-phenylacetyl)thioureido)phenoxy)thieno[3,2-b]pyridine-2-carbonyl)pyrrolidine-2-carboxamide], the 50% inhibitory concentration (IC50) was 50 to 250 nM on TPR-MET fusion protein, under 50 nM on VEGF receptor KDR and 50 to 250 nM in test [1].
As to “1-(4-(6-(4-N- Methylpiperazylcarbamoyl) thieno[3,2- d]pyrimidin-4-yloxy)- 3-fluorophenyl)-3-(2- phenylacetyl)thiourea [Example 24]”, the IC50 at TPR-MET fusion protein was over 500 nM; on VEGF receptor KDR, 250 to 500 nM; in test [1], 50 to 250 nM.
Turning to `O=C(Cc1ccccc1)NC(=S)Nc1ccc(Oc2ccnc3cc(C(=O)N4CC[C@H](O)C4)sc23)c(F)c1` [Example 39, (S)-N-(3-Fluoro-4-(2-(3-hydroxypyrrolidine-1-carbonyl)thieno[3,2-b]pyridin-7-yloxy)phenylcarbamothioyl)-2-phenylacetamide], in the test on A549 (30 mg/kg once daily IP, vehicle DMSO, 14 days), the “Tumor Growth Inhibition (%)” value is reported as “b (% TGI in the range of 50-74)”.
As to `COC(=O)C(C)N(C(=S)NC(=O)Cc1ccccc1)c1ccc(Oc2ccnc3cc(C(N)=O)sc23)c(F)c1` (stereo not shown) [Example 11, Methyl 2-(1-(4-(2-(carbamoyl)thieno [3,2-b]pyridin-7-yloxy)-3-fluorophenyl)-3-(2-phenylacetyl)thioureido) propanoate], the IC50 on TPR-MET fusion protein was 50 to 250 nM; on VEGF receptor KDR, over 500 nM; in test [1] it was 50 to 250 nM.
On to “1-(4-(2- (morpholinylcarbamoyl) thieno[3,2- b]pyridin-7-yloxy)-3- fluorophenyl)-3-(2- phenylacetyl)thiourea [Example 3]”, for which the results for the IC50 (on TPR-MET fusion protein; on VEGF receptor KDR; in test [1]) were 50 to 250 nM, 250 to 500 nM and 50 to 250 nM, respectively.
